Data reported in US20120015925A1, “NOVEL BENZOTHIAZEPINE AND BENZOTHIEPINE COMPOUNDS” (ASAHI KASEI PHARMA CORPORATION, priority 2004, published 2012).

Tests used:
rats dosed cholic acid = assay: Lowering effect on bile acid concentrations in portal vein blood in rats dosed cholic acid; format: in vivo, rat; conditions: po, 0.1 mg/kg, 2 h
Description: In the present Test Example, a lowering effect on bile acid concentrations in portal vein blood in rats dosed cholic acid was evaluated according to the method described in Jpn. Pharmacol. Ther., Vol. 24 Supplement, 1996, 103(S-577)-110(S-584).
That is, SD (IGS) strain male rats at 7 to 9 weeks of age were fasted one day before the administration date. […] The blood was collected from the portal vein 2 hours after the forced oral administration, and a total bile acid value in serum was measured to examine the effect of the test compound (n=6). As a control, another group (n=6) merely received cholic acid (200 mg/kg), to which the same procedure was applied. The cholic acid value was measured using the commercially available kit (brand name: Total Bile Acid-Test Wako, supplied form Wako Pure Chemical Industries). Defining the value in the control group to which no test compound had been administered as being 100%, a reduction rate (%) of the bile acid value when a certain amount of the test compound had been administered was calculated.

Caco-2 cell = assay: Gastrointestinal toxicity: cytotoxicity against Caco-2 cell (LDH activity); format: cell-based, human; conditions: for CELL TOXICITY AGAINST Caco2 10 μM / CELL TOXICITY AGAINST Caco2 30 μM / CELL TOXICITY AGAINST Caco2 3 μM: 2 hours, LDH activity in medium relative to cell lysis agent = 100%
Description: That is, 10,000 cells/well of Caco-2 cells (purchased from ATCC) were seeded in a 96-well plate [MEM-E medium, 10% FBS (Fetal Bovine Serum), 1% NEAA (Non Essential Amino Acid) solution, supplied from Gibco]. After culturing for 48 hours, the test compound diluted with the medium was added to each well. After 2 hours, 50 μL of the medium was collected, and an LDH activity in the medium was measured using an LDH activity measurement kit (CytoTox96 Non-Radioactive Cytotoxicity Assay, supplied from Promega). Defining the LDH activity of the Caco-2 cells treated with a cell lysis agent as being 100%, the relative activity was calculated as a index of the cytotoxicity.

human IBAT = target: T1, human IBAT (Homo sapiens, UniProt Q12908); assay: In vitro assay using Cos 7 cells, transiently expressed human IBAT; format: cell-based; conditions: [3H]-taurocholate 8 μM uptake, 37° C., 60 minutes
T1 sequence (Q12908 1-348): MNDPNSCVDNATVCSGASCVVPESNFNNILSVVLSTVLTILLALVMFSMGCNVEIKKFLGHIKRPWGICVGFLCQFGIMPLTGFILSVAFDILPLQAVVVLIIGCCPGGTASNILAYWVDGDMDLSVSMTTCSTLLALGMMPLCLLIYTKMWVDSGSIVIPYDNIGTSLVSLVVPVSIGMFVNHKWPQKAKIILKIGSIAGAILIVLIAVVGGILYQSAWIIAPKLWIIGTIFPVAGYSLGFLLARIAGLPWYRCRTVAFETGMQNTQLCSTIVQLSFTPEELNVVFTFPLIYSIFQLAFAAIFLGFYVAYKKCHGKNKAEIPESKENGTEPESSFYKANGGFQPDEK
Description: In the present Test Example, an in vitro assay of compounds using Cos 7 cells as to inhibitory activity on transiently expressed human IBAT or rat IBAT transporter was performed according to the method described in Am. J. Physiol., 274, G157-169.
That is, […] cells/well of Cos 7 cells were seeded in a 24-well plate, and after one day, the cells were transfected with 0.3 μg/well of cDNA of human IBAT or rat IBAT using FuGENE6 (supplied from Roche). After culturing for one day after the transfection, the cells were washed once with the assay buffer, i.e., Hanks buffer containing 25 mM glucose and 10 mM HEPES (pH 7.4). The assay buffer was then replaced with the assay buffer containing the test compound. [^3H]-Taurocholate at a final concentration of 8 μM was added thereto and incubated at 37° C. for 60 minutes so that [^3H]-taurocholate was taken into Cos 7 cells by the action of human IBAT or rat IBAT. The cells were washed twice with the assay buffer containing 1 mM taurocholate, and subsequently lysed with 0.2 M NaOH to stop the reaction. The cell lysate was added to 4 mL of liquid scintillation cocktail, which was then thoroughly vortexed. Then the radioactivity was measured using the liquid scintillation counter.

Structure (SMILES): CCCCC1(CCCC)CS(=O)(=O)c2ccc(N(C)C)cc2C(c2ccc(NC(=S)Nc3ccc(C[N+](C)(C)Cc4ccccc4)cc3)cc2)N1.[Br-] (stereo not drawn) [Example 5405, Benzyl-(4-{3-[4-(3,3-dibutyl-7-dimethylamino-1,1-dioxo-2,3,4,5-tetrahydro-1,4-benzothiazepine-5-yl)phenyl]thioureido}benzyl)dimethylammonium bromide]
- BILE ACID REDUCTION RATE (%) IN RAT MODEL WITH CHOLIC ACID LOADING (rats dosed cholic acid): 16%

Structure (SMILES): CCCCC1(CCCC)CS(=O)(=O)c2ccc(N(C)C)cc2C(c2cccc(NC(=S)Nc3ccc(C[N+]45CCC(c6ccccc6)(CC4)CC5)c(Cl)c3)c2)N1.[Br-] (stereo not drawn) [EXAMPLE P345]
- CELL TOXICITY AGAINST Caco2 10 μM (Caco-2 cell): <1%
- CELL TOXICITY AGAINST Caco2 30 μM (Caco-2 cell): <1%
- IC50 (human IBAT): 23 nM

Structure (SMILES): CCCCC1(CCCC)CS(=O)(=O)c2ccc(N(C)C)cc2C(c2cccc(NC(=S)Nc3ccc(C[n+]4ccc(C)cc4)cc3)c2)N1.[Br-] (stereo not drawn) [EXAMPLE 3709]
- CELL TOXICITY AGAINST Caco2 3 μM (Caco-2 cell): <1%
- CELL TOXICITY AGAINST Caco2 10 μM (Caco-2 cell): <1%
- CELL TOXICITY AGAINST Caco2 30 μM (Caco-2 cell): <1%
- IC50 (human IBAT): 49 nM

Structure (SMILES): CCCCC1(CCCC)CS(=O)(=O)c2ccc(N(C)C)cc2C(c2ccc(OCc3ccc(C[N+]45CCN(CC4)CC5)cc3)cc2)N1.[Cl-] (stereo not drawn) [Comparative Example, 1-{4-[4-(3,3-dibutyl-7-dimethylamino-1,1-dioxo-2,3,4,5-tetrahydro-1,4-benzothiazepine-5-yl)phenoxymethyl]benzyl}-4-aza-1-azoniabicyclo[2.2.2]octane chloride, reference compound]
- cytotoxicity to the Caco-2 cell (Caco-2 cell; LDH activity in medium after 2 hours): exhibited the cytotoxicity to the small intestine epithelial cell line at low concentrations

Structure (SMILES): CCCCCC1(CCCCC)CS(=O)(=O)c2ccc(N(C)C)cc2C(c2cccc(NC(=S)Nc3ccc(C[N+](C)(C)Cc4ccccc4)cc3)c2)N1.[Br-] (stereo not drawn) [EXAMPLE 5480]
- CELL TOXICITY AGAINST Caco2 3 μM (Caco-2 cell): <1%
- CELL TOXICITY AGAINST Caco2 10 μM (Caco-2 cell): <1%
- CELL TOXICITY AGAINST Caco2 30 μM (Caco-2 cell): <1%

Structure (SMILES): CCCCC1(CCCC)CS(=O)(=O)c2ccc(N(C)C)cc2C(c2cccc(NC(=S)Nc3ccc(C[N+]45CCC(c6ccccc6)(CC4)CC5)cc3C)c2)N1.[Br-] (stereo not drawn) [EXAMPLE P340]
- CELL TOXICITY AGAINST Caco2 10 μM (Caco-2 cell): <1%
- CELL TOXICITY AGAINST Caco2 30 μM (Caco-2 cell): <1%
- IC50 (human IBAT): 28 nM

Structure (SMILES): CCCCCC1(CCCCC)CS(=O)(=O)c2ccc(N(C)C)cc2C(c2cccc(NC(=S)Nc3ccc(C[N+]45CCC(CC4)CC5)cc3)c2)N1.[Br-] (racemic) [EXAMPLE 5735]
- CELL TOXICITY AGAINST Caco2 3 μM (Caco-2 cell): <1%
- CELL TOXICITY AGAINST Caco2 10 μM (Caco-2 cell): <1%
- CELL TOXICITY AGAINST Caco2 30 μM (Caco-2 cell): <1%

Structure (SMILES): CCCCc1ccc[n+](Cc2ccc(NC(=S)Nc3cccc(C4NC(CCCC)(CCCC)CS(=O)(=O)c5ccc(N(C)C)cc54)c3)cc2)c1.[Br-] (stereo not drawn) [EXAMPLE 3723]
- CELL TOXICITY AGAINST Caco2 3 μM (Caco-2 cell): <1%
- CELL TOXICITY AGAINST Caco2 10 μM (Caco-2 cell): <1%
- CELL TOXICITY AGAINST Caco2 30 μM (Caco-2 cell): <1%
- IC50 (human IBAT): 25 nM

Structure (SMILES): CCCCC1(CCCC)CS(=O)(=O)c2ccc(N(C)C)cc2C(c2cccc(NC(=S)Nc3ccc(C[N+]45CCN(CC4)CC5)cc3)c2)N1.[Br-] (stereo not drawn) [EXAMPLE 3705]
- CELL TOXICITY AGAINST Caco2 3 μM (Caco-2 cell): <1%
- CELL TOXICITY AGAINST Caco2 10 μM (Caco-2 cell): <1%
- CELL TOXICITY AGAINST Caco2 30 μM (Caco-2 cell): <1%
- IC50 (human IBAT): 54 nM

Structure (SMILES): CCCCC1(CCCC)CS(=O)(=O)c2ccc(N(C)C)cc2C(c2cccc(NC(=S)Nc3ccc(C[N+]45CCC(c6ccccc6)(CC4)CC5)cc3Cl)c2)N1.[Br-] (stereo not drawn) [EXAMPLE P344]
- CELL TOXICITY AGAINST Caco2 10 μM (Caco-2 cell): <1%
- CELL TOXICITY AGAINST Caco2 30 μM (Caco-2 cell): <1%
- IC50 (human IBAT): 19 nM

Structure (SMILES): CCCCCC1(CCCCC)CS(=O)(=O)c2ccc(N(C)C)cc2C(c2cccc(NC(=S)Nc3ccc(CC[N+](C)(C)Cc4ccccc4)cc3)c2)N1.[Br-] (racemic) [EXAMPLE 5856]
- CELL TOXICITY AGAINST Caco2 3 μM (Caco-2 cell): <1%
- CELL TOXICITY AGAINST Caco2 10 μM (Caco-2 cell): <1%
- CELL TOXICITY AGAINST Caco2 30 μM (Caco-2 cell): <1%

Structure (SMILES): CCCCC1(CCCC)CS(=O)(=O)c2ccc(N(C)C)cc2C(c2cccc(NC(=S)Nc3ccc(C[N+]45CCC(c6ccccc6)(CC4)CC5)c(C(F)(F)F)c3)c2)N1.[Br-] (stereo not drawn) [EXAMPLE P348]
- CELL TOXICITY AGAINST Caco2 10 μM (Caco-2 cell): <1%
- CELL TOXICITY AGAINST Caco2 30 μM (Caco-2 cell): <1%
- IC50 (human IBAT): 22 nM

Structure (SMILES): CCCCC1(CCCC)CS(=O)(=O)c2ccc(N(C)C)cc2C(c2cccc(NC(=S)Nc3ccc(C[N+]45CCC(c6ccccc6)(CC4)CC5)c(Br)c3)c2)N1.[Br-] (stereo not drawn) [EXAMPLE P347]
- CELL TOXICITY AGAINST Caco2 10 μM (Caco-2 cell): <1%
- CELL TOXICITY AGAINST Caco2 30 μM (Caco-2 cell): <1%
- IC50 (human IBAT): 24 nM

Structure (SMILES): CCCCCC1(CCCCC)CS(=O)(=O)c2ccc(N(C)C)cc2C(c2cccc(NC(=S)Nc3ccc(CC[N+]45CCC(CC4)CC5)cc3)c2)N1.[Br-] (racemic) [EXAMPLE 5857]
- CELL TOXICITY AGAINST Caco2 3 μM (Caco-2 cell): <1%
- CELL TOXICITY AGAINST Caco2 10 μM (Caco-2 cell): <1%
- CELL TOXICITY AGAINST Caco2 30 μM (Caco-2 cell): <1%

Structure (SMILES): CCCCC1(CCCC)CS(=O)(=O)c2ccc(N(C)C)cc2C(c2cccc(NC(=S)Nc3ccc(C[N+]45CCC(CC4)C(O)C5)cc3)c2)N1 (racemic) [EXAMPLE 3697]
- IC50 (human IBAT): 69 nM

Structure (SMILES): CCCCCCOC(=O)c1ccc[n+](Cc2ccc(NC(=S)Nc3cccc(C4NC(CCCC)(CCCC)CS(=O)(=O)c5ccc(N(C)C)cc54)c3)cc2)c1 (stereo not drawn) [EXAMPLE 3750]
- IC50 (human IBAT): 75 nM

Structure (SMILES): CCCCC1(CCCC)CS(=O)(=O)c2ccc(N(C)C)cc2C(c2cccc(NC(=S)Nc3ccc(C[N+]45CCC(CC4)C(=O)C5)cc3)c2)N1 (stereo not drawn) [EXAMPLE 3698]
- IC50 (human IBAT): 72 nM

Structure (SMILES): CCCCC1(CCCC)CS(=O)(=O)c2ccc(N(C)C)cc2C(c2cccc(NC(=S)Nc3ccc(C[N+]45CCC(CC4)CC5)c(C(F)(F)F)c3)c2)N1 (stereo not drawn) [EXAMPLE P324]
- IC50 (human IBAT): 37 nM

Structure (SMILES): CCCCC1(CCCC)CS(=O)(=O)c2ccc(N(C)C)cc2C(c2cccc(NC(=S)Nc3ccc(C[n+]4ccc(C)c(C)c4)cc3)c2)N1 (stereo not drawn) [EXAMPLE 3727]
- IC50 (human IBAT): 66 nM

Structure (SMILES): CCCCC1(CCCC)CS(=O)(=O)c2ccc(N(C)C)cc2C(c2cccc(NC(=S)Nc3ccc(C[N+](C)(C)Cc4ccccc4)cc3Br)c2)N1 (stereo not drawn) [EXAMPLE P334]
- IC50 (human IBAT): 37 nM

Structure (SMILES): CCCCC1(CCCC)CS(=O)(=O)c2ccc(N(C)C)cc2C(c2cccc(NC(=S)Nc3ccc(C[N+](C)(C)C(C)c4ccccc4)cc3)c2)N1 (stereo not drawn) [EXAMPLE 3441]
- IC50 (human IBAT): 85 nM

Structure (SMILES): CCCCC1(CCCC)CS(=O)(=O)c2ccc(N(C)C)cc2C(c2cccc(NC(=S)Nc3ccc(C[n+]4ccccc4)cc3)c2)N1 (racemic) [EXAMPLE 3708]
- IC50 (human IBAT): 70 nM

Structure (SMILES): CCCCC1(CCCC)CS(=O)(=O)c2ccc(N(C)C)cc2C(c2cccc(NC(=S)Nc3ccc(C[N+]45CCC(c6ccccc6)(CC4)CC5)cc3F)c2)N1 (stereo not drawn) [Example P316, 1-(4-{3-[3-(3,3-dibutyl-7-dimethylamino-1,1-dioxo-2,3,4,5-tetrahydro-1,4-benzothiazepine-5-yl)phenyl]thioureido}-3-fluorobenzyl)-4-phenyl-1-azoniabicyclo[2.2.2]octane bromide]
- IC50 (human IBAT): 28 nM

Structure (SMILES): CCCCCCCCCC[N+](C)(C)Cc1ccc(NC(=S)Nc2cccc(C3NC(CCCC)(CCCC)CS(=O)(=O)c4ccc(N(C)C)cc43)c2)cc1 (stereo not drawn) [EXAMPLE 3414]
- IC50 (human IBAT): 88 nM
